# Measurements as given in patent US20190142832A1, “Marker for Cancer Prognosis and Methods Related Thereto” (National Jewish Health, priority 2007, published 2019).
# Like-named read-outs stand apart in the source and are kept apart here.
# What was measured:
# [1] = tested on: HLMVEC; experiment: Matrigel tube formation (branching) assay in HLMVEC; type: cell-based, human
# Procedure: Angiogenesis in HLMVEC was assessed using the Matrigel tube formation assay. Growth factor-reduced Matrigel matrix was coated onto 12-well plates and allowed to solidify at 37° C. for 30 min. HLMVEC's were then trypsinized and plated onto the Matrigel in the absence of growth factors or serum and incubated at 37° C. in a CO2 incubator. The A2A receptor agonist, CGS-21680, or the diluent control was included both in the Matrigel matrix and the overlying medium. Four hours after plating of cells, three randomly chosen fields from each well were photographed. Branch points were counted and plotted.
# [2] = tested on: HLMVEC; experiment: [3H]-thymidine incorporation proliferation assay in HLMVEC; type: cell-based, human; settings: serum-starved, varying concentrations, 24 h
# Procedure: Proliferation of HLMVEC was measured using [^3H]-thymidine incorporation. About 20,000 cells were plated in each well of a 24-well plate in endothelial cell complete medium. After 24 h, cells were washed once with HBSS and serum-starved in EBM-2 medium containing 1% FBS, hydrocortisone, ascorbic acid and GA-1000. After 24 h, cells were incubated with [^3H] thymidine (1 μCi/well) in the presence or absence of the adenosine A2A receptor agonist, CGS-21680, at varying concentrations for an additional 24 h. Subsequently, cells were washed twice with ice-cold PBS, precipitated with 0.1 N perchloric acid, and solubilized with 0.01 N NaOH containing 0.1% SDS prior to scintillation counting. Similarly, proliferation was also measured in cells transduced with Ad.A2A or Ad.LacZ at a multiplicity of infection of 10 pfu/cell.
# [3] = tested on: MB114 cells; experiment: Tube formation of MB114 cells on collagen gel; type: cell-based, murine; settings: 5 days
# Procedure: MB114 cells (a microvascular endothelial cell line) were plated on collagen gel in presence of absence of the A2A receptor agonist CGS-21680 at a density of 80000 cells/well using a 24 well plate. After incubation for 5 days, photos from each well were taken randomly.
# [4] = tested on: PI 3-kinase; experiment: PI 3-kinase activity in anti-p85 immunoprecipitate and phospho-Akt Western blot, HLMVEC; type: cell-based, human; settings: 1 μM
# Procedure: HLMVECs were cultured on 100 mm dishes. Cells were serum starved for 24 h before treating with 1 μM of CGS-21680 (Adenosine A2A receptor agonist) or the diluent control. Following treatment, lysates were prepared and −500 μg of protein was incubated with 20 μl of anti-p85-conjugated agarose (200 μg anti p85/200 μl agarose) for 2 h, after which the complex was precipitated. PI3-kinase activity was measured in the immunoprecipitate.
# [5] = tested on: adenosine A2A receptor mRNA; experiment: Northern blot of adenosine A2A receptor mRNA in human endothelial cells (HLMVEC, HCAEC); type: cell-based
# Procedure: To assess the role of adenosine receptors in hypoxia, primary HLMVEC were exposed to air or hypoxia. For detecting mRNA, twenty-four hours post-transduction or treatment, cells were washed twice with Hank's balanced salt solution (HBSS) and harvested in GITC. RNA was purified using the CsCl method as described earlier (Riddle et al., Am J Physiol Lung Cell Mol Physiol 278, L407 (2000). 15 μg total RNA were resolved on 1% formaldehyde-agarose gels and transferred to nylon membranes. Probes used for northern blot were derived from human A2A cDNA and human A2B cDNA kindly provided by Dr. Marlene Jacobson, Merck Research Labs, West Point, Pa. The VEGF cDNA was obtained from the Harvard Proteomic Institute. The cDNA probes were labeled with [^32P]α-dCTP (ICN, Irvine, Calif.) by random priming and hybridized with the membrane for 18 hrs at 42° C. Membranes were then washed and autoradiographed. For loading controls, membranes were stripped of radioactive probe in a 2% glyceraldehyde solution at 80° C. and rehybridized with an end-labeled 28S rRNA oligonucleotide (Ambion, Austin, Tex.). The intensity of the radiolabeled bands was measured using a PhosphorImager running ImageQuant software (Molecular Dynamics, Sunnyvale, Calif.). The same Northern Blot procedure was used in subsequent examples, unless specifically noted otherwise. Protein expression was detected using standard Western Blot methods described in Ahmad, Free Radic Biol Med. 40(7):1108(2006).
# [6] = tested on: A2A receptor mRNA; experiment: A2A receptor mRNA expression in mouse derived endothelial cells SVEC and MB114; type: cell-based
# Procedure: Primary human lung microvascular endothelial cells (HLMVEC), primary human coronary artery endothelial cells (HCAEC), primary pulmonary artery endothelial cells (HPAEC) and endothelial cell growth medium were obtained from Cambrex (Walkersville, Md.). Dimethyloxlylglycine (DMOG) was obtained from Frontier Scientific, Inc (Logan, Utah). HLMVEC and HCAEC were cultured in endothelial cell basal medium (EBM-2) supplemented with VEGF, human FGF, human EGF, hydrocortisone, ascorbic acid, insulin-like growth factor-1, GA-1000 (gentamycin/amphotericin-B), 5% fetal bovine serum as per the supplier's protocol. Murine brain microvascular endothelial cells (MB114) and SV-40 transformed mouse endothelial cells (SVEC) were cultured in DMEM supplemented with 10% FBS, penicillin and streptomycin. The same culture conditions were used in subsequent examples, unless specifically noted otherwise.
# To assess the role of adenosine receptors in hypoxia, primary HLMVEC were exposed to air or hypoxia. […] The intensity of the radiolabeled bands was measured using a PhosphorImager running ImageQuant software (Molecular Dynamics, Sunnyvale, Calif.). […] Protein expression was detected using standard Western Blot methods described in Ahmad, Free Radic Biol Med. 40(7):1108(2006).
# [7] = HLMVEC (donors) and HCAEC, Northern blot
smiles,measurement,setting,value
CCNC(=O)[C@H]1O[C@@H](n2cnc3c(N)nc(NCCc4ccc(CCC(=O)O)cc4)nc32)[C@H](O)[C@@H]1O [CGS-21680],cell sprouting / formation of branches relative to control cells,"[1]; Matrigel, 4 h",increased cell sprouting resulting in formation of branches
same,increase in branching compared to the diluent control,"[1]; Matrigel-matrix based assay, branch points 4 h after plating",37%
same,cellular proliferation as assessed by 3[H]thymidine incorporation,[2],increased cellular proliferation in a dose-dependent manner
same,tube formation,[3],promotes tube formation in a dose dependent manner
same,expression of phosphorylated Akt (Western blot),[4],increases expression of phosphorylated Akt
same,"PI3-kinase activity (phosphorylation of phosphoinositides, PIP3)",[4]; serum starved 24 h,increased PI3-kinase activity
[Cl-].[Cl-].[Co+2] [CoCl2],adenosine A2A receptor steady-state mRNA levels,[5],increases adenosine A2A receptor steady-state mRNA levels
CC(=O)N(O)CCCCCNC(=O)CCC(=O)N(O)CCCCCNC(=O)CCC(=O)N(O)CCCCCN [DFO],adenosine A2A receptor steady-state mRNA levels,[5]; [7],increases adenosine A2A receptor steady-state mRNA levels
"COC(=O)CNC(=O)C(=O)OC [DMOG, Dimethyloxlylglycine]",expression of A2A receptor mRNA levels,[6],neither hypoxia nor HIF stabilization by DMOG altered the expression of A2A receptor mRNA levels
same,adenosine A2A receptor steady-state mRNA levels,[5]; [7],increases adenosine A2A receptor steady-state mRNA levels
